The numbers were not newly measured in US6972176B2, “KVLQT1—a long QT syndrome gene” (University of Utah Research Foundation, priority 1995, dated 2005), which cites them from elsewhere.

Structures are written as SMILES.

The series concerns the target T1, IKs in isolated myocytes (Cavia porcellus, UniProt O70344).
T1 construct: host or cells: isolated cardiac myocytes
T1 sequence (O70344 1-671): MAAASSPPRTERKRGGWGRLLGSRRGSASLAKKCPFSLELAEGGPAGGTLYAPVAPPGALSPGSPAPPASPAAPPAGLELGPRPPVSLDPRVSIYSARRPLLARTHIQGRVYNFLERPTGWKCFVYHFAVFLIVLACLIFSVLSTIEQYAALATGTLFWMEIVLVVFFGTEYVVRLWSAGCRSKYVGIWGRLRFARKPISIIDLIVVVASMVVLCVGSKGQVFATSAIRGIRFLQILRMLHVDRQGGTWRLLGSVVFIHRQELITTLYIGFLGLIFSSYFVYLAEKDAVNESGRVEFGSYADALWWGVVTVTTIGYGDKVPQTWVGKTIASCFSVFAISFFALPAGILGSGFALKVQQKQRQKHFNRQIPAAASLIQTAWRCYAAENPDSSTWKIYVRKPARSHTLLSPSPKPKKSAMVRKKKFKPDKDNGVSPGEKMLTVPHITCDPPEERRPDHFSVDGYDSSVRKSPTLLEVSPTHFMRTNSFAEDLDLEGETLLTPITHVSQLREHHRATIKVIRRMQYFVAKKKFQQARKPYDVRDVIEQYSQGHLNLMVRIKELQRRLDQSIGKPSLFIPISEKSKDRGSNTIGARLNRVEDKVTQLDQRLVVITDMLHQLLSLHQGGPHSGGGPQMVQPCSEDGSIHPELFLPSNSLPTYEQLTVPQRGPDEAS
Particulars: Balser et al, 1991.

Regarding `C=C[C@H]1C[N@@]2CC[C@H]1C[C@@H]2[C@@H](O)c1ccnc2ccc(OC)cc12` [Quinidine], the “block of IKs” value was 40-50%.
